5 compounds from patent US20160213742A1, “COMPOSITIONS AND METHODS FOR THE TREATMENT OF FUNGAL INFECTIONS” (priority 2013, published 2016) can be followed below.

Common to all, as to format: cell-based
Assay [1] deals with Neutrophils purified from human peripheral blood. Put plainly: Human Neutrophil Transwell Migration Assay. The note with it: 37° C., 45 minutes, % of the maximum migration possible. The text has this:
Neutrophils were purified from human peripheral blood utilizing PolymorphPrep. Red blood cells were lysed with a lysis buffer and the cells were washed, counted and resuspended in assay buffer. Neutrophils (approximately 50,000 to 100,000 in number) were placed over 5-micon pore sized transwell plates in 24-well format with test compounds in the bottom chamber of each well. A negative control of media alone in the bottom chamber was set up in triplicate. A positive control where the neutrophils were added directly to the bottom well was set up in triplicate.
The plates were incubated at 37° C. for 45 minutes to allow for migration. After this time, migration was confirmed visually and then an aliquot (⅙^th of total cells) from each well was taken for ATP detection via luminescence with ATPlite (PerkinElmer) to quantify the number of migrated cells. The averaged reading for random migration detected in the negative control was subtracted from all readings to obtain the corrected migration number. These numbers were then divided by the averaged reading from the positive control to get the % Neutrophil Migration of the maximum migration possible.

In assay [2] the test system is A. fumigatus ATCC 13073. Put plainly: MEC assay (Example 31). The note with it: RPMI pH 7.0, 35° C., 24-48 hr. The protocol: (§1) The test organisms consisted of strains from the Micromyx collection. Reference isolates were originally received from the American Type Culture Collection (ATCC; Manassas, Va.). Organisms received at Micromyx were initially streaked for isolation on Sabouraud dextrose or potato dextrose agar. Colonies were picked by swab from the medium and resuspended in the appropriate broth containing cryoprotectant. The suspensions were aliquoted into cryogenic vials and maintained at −80° C. Prior to testing, Candida isolates were streaked from the frozen vials on Sabouraud dextrose agar. The yeast isolates were incubated at overnight at 35° C. before use. The fungal isolates were incubated at least 7 days on Sabouraud dextrose agar slants at 35° C. before harvesting.
(§2) Isolates were tested in RPMI medium (Catalog No. SH30011.04; Lot No. AWA92121B; HyClone Labs, Logan, Utah) which was prepared according to CLSI guidelines. The pH of the medium was adjusted to 7.0 with 1 N NaOH. The medium was sterile filtered using a 0.2 μm PES filter and stored at 4° C. until used.
(§3) The MIC assay method employed automated liquid handlers to conduct serial dilutions and liquid transfers. Automated liquid handlers included the Multidrop 384 (Labsystems, Helsinki, Finland), Biomek 2000 and Biomek FX (Beckman Coulter, Fullerton Calif.). The wells in columns 2-12 in standard 96-well microdilution plates (Costar 3795) were filled with 150 μl of the correct diluent (50% DMSO for investigational compounds, 100% DMSO for comparator compounds). These would become the mother plates' from which ‘daughter’ or test plates would be prepared. Stocks were diluted to 40× the desired top concentration in the test plates in the indicated solvent, and 300 μL of the 40× stock was dispensed into the appropriate well in Column 1 of the mother plates. The Biomek 2000 was used to make serial serial 2-fold dilutions through Column 11 in the “mother plate”. The wells of Column 12 contained no drug and served as the organism growth control wells.
(§4) The daughter plates were loaded with 185 μL per well of RPMI described above using the Multidrop 384. The daughter plates were prepared using the Biomek FX which transferred 5 μL of drug solution from each well of a mother plate to the corresponding well of the daughter plate in a single step.
(§5) A standardized inoculum of each organism was prepared. For Candida, colonies were picked from the streak plate and a suspension was prepared in RPMI medium equal to a 0.5 McFarland standard, then diluted 1:100 in RPMI and transferred to compartments of sterile reservoirs divided by length (Beckman Coulter). For the Aspergillus isolates, previously prepared and quantitated suspensions were used to make dilutions in RPMI to reach 20× the final concentration. These dilutions were also transferred to compartments of sterile reservoirs divided by length (Beckman Coulter). The final concentration of the Aspergillus isolates was approximately 0.2-2.5×10^4 CFU/mL.
(§6) The Biomek 2000 was used to inoculate the plates. Daughter plates were placed on the Biomek 2000 work surface reversed so that inoculation took place from low to high drug concentration. The Biomek 2000 delivered 10 μL of standardized inoculum into each well. Thus, the wells of the daughter plates ultimately contained 185 μL of RPMI, 5 μL of drug solution, and 10 μL of inoculum. The final concentration of DMSO in the test well was 2.5% for the evaluated comparators and 1.25% for the investigational agents.
(§7) Plates were stacked 3 high, covered with a lid on the top plate, placed into plastic bags, and incubated at 35° C. for approximately 24-48 hr prior to reading. Plates were read when inoculum was confluent in growth wells. Plates were viewed from the bottom using a plate viewer. […] MICs were read where visible growth of the organism was inhibited. MECs were read where the growth shifted to a small, rounded, compact hyphal form as compared to the hyphal growth seen in the growth control well.

The subject of assay [3] is A. fumigatus MX 5944. As to the kind of experiment: MEC assay (Example 31). Particulars: RPMI pH 7.0, 35° C., 24-48 hr. The protocol:
as §1, §2, §3, §4, §5, §6, §7

Assay [4] has as its system A. flavus MX 5948. Put plainly: MEC assay (Example 31). Particulars: RPMI pH 7.0, 35° C., 24-48 hr. The protocol:
as §1, §2, §3, §4, §5, §6, §7

Assay [5] relates to A. fumigatus MYA-3626. As to the kind of experiment: MEC assay (Example 31). The note with it: RPMI pH 7.0, 35° C., 24-48 hr. The protocol:
as §1, §2, §3, §4, §5, §6, §7

Assay [6] deals with A. fumigatus MYA-4609. Put plainly: MEC assay (Example 31). Particulars: RPMI pH 7.0, 35° C., 24-48 hr. The protocol: as §1, §2, §3, §4, §5, §6, §7
Assay [7] relates to C. glabrata ATCC 90030. As to the kind of experiment: microbe, parasite or virus in culture. The protocol: as §1, §2, §3, §4, §5, §6, §7
Assay [8] concerns C. albicans ATCC 90028. As to the kind of experiment: microbe, parasite or virus in culture. The protocol:
as §1, §2, §3, §4, §5, §6, §7

The subject of assay [9] is C. parapsilosis ATCC 22019. Put plainly: microbe, parasite or virus in culture. The protocol: as §1, §2, §3, §4, §5, §6, §7
Assay [10] relates to C. krusei ATCC 14243. Put plainly: microbe, parasite or virus in culture. The protocol: as §1, §2, §3, §4, §5, §6, §7

≈ marks a conversion by molar mass, not a printed value. Like-named read-outs stand apart in the source and are kept apart here.

Take `CC[C@H](C)C[C@H](C)CCCCCCCCC(=O)N[C@H]1C[C@@H](O)[C@@H](NCCNC(=O)C(Cc2ccccc2)NC(=O)C(CC(C)C)NC(=O)C(CCSC)NC(=O)Nc2ccc(Cl)cc2)NC(=O)[C@@H]2[C@@H](O)CCN2C(=O)[C@H]([C@H](O)CCN)NC(=O)[C@H]([C@H](O)[C@@H](O)c2ccc(O)cc2)NC(=O)[C@@H]2C[C@@H](O)CN2C(=O)[C@H]([C@@H](C)O)NC1=O` (single isomer, unassigned) [Compound 13b]: the “% Neutrophil Migration” value was 6.2% in assay [1] (conc 0.001 μg/mL); 26.1% in assay [1] (conc 0.01 μg/mL); 11.5% in assay [1] (conc 0.1 μg/mL); −8.5% in assay [1] (conc 1 μg/mL); −7.6% in assay [1] (conc 10 μg/mL). In addition, the MEC in [2] was 0.25 µg/mL; in assay [3], 0.25 µg/mL; in assay [4] it was 0.12 µg/mL; in assay [5], 0.25 µg/mL; in [6], 0.12 µg/mL. The MIC in assay [7] (C. glabrata ATCC 90030, RPMI pH 7.0, 35° C., 24-48 hr) was 8 µg/mL (≈ 4.88 µM); in [8] (C. albicans ATCC 90028, RPMI pH 7.0, 35° C., 24-48 hr) it was 2 µg/mL (≈ 1.22 µM); in assay [9] (C. parapsilosis ATCC 22019, RPMI pH 7.0, 35° C., 24-48 hr), 32 µg/mL (≈ 19.5 µM); in [10] (C. krusei ATCC 14243, RPMI pH 7.0, 35° C., 24-48 hr), 16 µg/mL (≈ 9.77 µM).
As to `CC[C@H](C)C[C@H](C)CCCCCCCCC(=O)N[C@H]1C[C@@H](O)[C@@H](NCCNC(=O)[C@H](Cc2ccccc2)NC(=O)[C@H](CC(C)C)NC(=O)[C@H](CCSC)NC=O)NC(=O)[C@@H]2[C@@H](O)CCN2C(=O)[C@H]([C@H](O)CCN)NC(=O)[C@H]([C@H](O)[C@@H](O)c2ccc(O)cc2)NC(=O)[C@@H]2C[C@@H](O)CN2C(=O)[C@H]([C@@H](C)O)NC1=O` [Compound 2], the “% Neutrophil Migration” value in assay [1] (conc 0.001 μg/mL) is listed as −5.3%; in assay [1] (conc 0.01 μg/mL) it was 28.5%; in [1] (conc 0.1 μg/mL), 97.5%; in assay [1] (conc 1 μg/mL), 30.6%; in assay [1] (conc 10 μg/mL), −11.0%. Further, the MEC in assay [2] is 0.12 to 2 µg/mL; in assay [3], 0.12 to 1 µg/mL; in assay [4], 0.06 to 1 µg/mL; in assay [5], 0.25-1^ μg/mL; in assay [6], 0.12 to 1 µg/mL. Further, the MIC in [7] (ATCC 90030, pH 7) was 4 µg/mL (≈ 2.64 µM); in assay [8] (ATCC 90028, pH 7), 2 µg/mL (≈ 1.32 µM); in assay [9] (ATCC 22019, pH 7) it was 16 µg/mL (≈ 10.6 µM); in assay [10] (ATCC 14243, pH 7), 8 to 16 µg/mL.
As to `CC[C@H](C)C[C@H](C)CCCCCCCCC(=O)N[C@H]1C[C@@H](O)[C@@H](NCCN)NC(=O)[C@@H]2[C@@H](O)CCN2C(=O)[C@H]([C@H](O)CCNC(=O)CCNC(=O)[C@H](Cc2ccccc2)NC(=O)[C@H](CC(C)C)NC(=O)[C@H](CCSC)NC=O)NC(=O)[C@H]([C@H](O)[C@@H](O)c2ccc(O)cc2)NC(=O)[C@@H]2C[C@@H](O)CN2C(=O)[C@H]([C@@H](C)O)NC1=O` [Compound 3], the “% Neutrophil Migration” value is reported as 1.5% in [1] (conc 0.001 μg/mL); 109.3% in [1] (conc 0.01 μg/mL); 66.2% in [1] (conc 0.1 μg/mL); −9.7% in [1] (conc 1 μg/mL); −11.0% in assay [1] (conc 10 μg/mL). For the same compound, the MEC in assay [2], in assay [3], in [4], in assay [5] and in assay [6] was 1 µg/mL in each case. The MIC in assay [7] (ATCC 90030, pH 7) was 16 µg/mL (≈ 10.1 µM); in assay [8] (ATCC 90028, pH 7), 2 µg/mL (≈ 1.26 µM); in assay [9] (ATCC 22019, pH 7), above 32 µg/mL; in [10] (ATCC 14243, pH 7) it was 16 µg/mL (≈ 10.1 µM).
Take `CC[C@H](C)C[C@H](C)CCCCCCCCC(=O)N[C@H]1C[C@@H](O)[C@@H](OCCNC(=O)[C@H](Cc2ccccc2)NC(=O)[C@H](CC(C)C)NC(=O)[C@H](CCSC)NC=O)NC(=O)[C@@H]2[C@@H](O)CCN2C(=O)[C@H]([C@H](O)CCN)NC(=O)[C@H]([C@H](O)[C@@H](O)c2ccc(O)cc2)NC(=O)[C@@H]2C[C@@H](O)CN2C(=O)[C@H]([C@@H](C)O)NC1=O` [Compound 12]: the MEC entry in [2] is “≦0.03-0.12 μg/mL”; in assay [3], 0.12 to 0.25 µg/mL; in assay [4] it was “≦0.03-0.12 μg/mL”; in assay [5], 0.06 to 0.25 µg/mL; in assay [6], 0.06 to 0.12 µg/mL. Besides, the MIC in [7] (ATCC 90030, pH 7) lay within 4 to 8 µg/mL; in assay [8] (ATCC 90028, pH 7), 1 to 2 µg/mL; in [9] (ATCC 22019, pH 7), 8 to 16 µg/mL; in assay [10] (ATCC 14243, pH 7), 8 to 16 µg/mL.
In the case of `C[C@@H](c1ncncc1F)[C@](O)(Cn1cncn1)c1ccc(F)cc1F` [voriconazole, reference compound], the MEC in assay [2] was 0.012-0.5^ μg/mL; in assay [3], 0.12 to 0.25 µg/mL; in assay [4] it was 0.25 to 2 µg/mL; in assay [5] it was 0.12 to 0.5 µg/mL; in assay [6] it was 0.25 to 0.5 µg/mL. The MIC lay within 0.12 to 0.25 µg/mL (≈ 0.344 to 0.716 µM) in assay [7] (Nakaseomyces glabratus, ATCC90030, C. glabrata ATCC 90030, RPMI pH 7.0, 35° C., 24-48 hr, read-out: MIC); 0.06 to 0.5 µg/mL (≈ 0.172 to 1.43 µM) in assay [8] (Candida albicans, ATCC90028, C. albicans ATCC 90028, RPMI pH 7.0, 35° C., 24-48 hr, read-out: MIC); 0.03 to 0.06 µg/mL (≈ 0.0859 to 0.172 µM) in [9] (Lodderomyces parapsilosis, ATCC22019, C. parapsilosis ATCC 22019, RPMI pH 7.0, 35° C., 24-48 hr, read-out: MIC); 0.25 to 1 µg/mL (≈ 0.716 to 2.86 µM) in [10] (Pichia kudriavzevii, ATCC14243, C. krusei ATCC 14243, RPMI pH 7.0, 35° C., 24-48 hr, read-out: MIC).
